Assay results reported in patent publication EP4578855A1, “PROLYL HYDROXYLASE INHIBITOR AND USE THEREOF” (Suzhong Pharmaceutical Group Co., Ltd., priority 2022, dated 2024).
Where “and” joins values, the source holds several entries; their conditions need not be identical. Equal values may be shown once. Read-outs that look alike come from different tables or passages of the source.

Columns and labels:
[1] = tested on: human hepatocarcinoma cell line Hep3B; test: In-vitro erythropoietin (EPO)-inducing activity experiment (EPO ELISA, OD450); format: cell-based; conditions: Hep3B cells, incubated 24 hours at 37°C
Procedure: In-vitro erythropoietin (EPO)-inducing activities of the compounds in Embodiments 10 to 12 were evaluated by using a human hepatocarcinoma cell line Hep3B (ATCC). Hep3B cells were cultured in an EMEM medium (Eagle's Minimum Essential Medium) at 37°C in the presence of 10% fetal bovine serum (FBS). Experimental steps were as follows: • (1) Cell preparation: the cells were inoculated in a 96-well plate, and cell plating was carried out according to an amount of 100 µL per well based on 2*10~4 per well. • (2) Preparation of compound concentration gradient: 100 µM, 20 µM, 2-parallel well detection. A solution with 200 times final concentration was prepared in a 96-well plate, the compound was diluted 200/3 times by using a cell culture medium, and then 50 µL of the compound was sucked for drug administration to the cells. 50 µL of DMSO-containing culture solution was added into a negative control well to make a final concentration contain 5 ‰ DMSO, and 50 µL of positive compound with the highest concentration was added into a positive control well to incubate the cells at 37°C for 24 hours. • (3) The reaction plate was washed twice with 1X Wash Buffer according to about 400 µL per well. • (4) 100 µL of diluted standard (comprising a standard blank control) was added into an appropriate well. • (5) 50 µL of sample and 50 µL of Sample Diluent were added into a sample well. • (6) 50 µL of 1X Biotin Conjugated Antibody were added into all wells to incubate the cells at room temperature for 1 hour. • (7) The reaction plate was washed with 1X Wash Buffer for 6 times according to about 400 µL per well. • (8) 100 µL of 1X Streptavidin-HRP was added in to each well to incubate the cells at room temperature for 15 minutes. • (9) The reaction plate was washed with 1X Wash Buffer for 6 times according to about 400 µL per well. • (10) 100 µL of TMB Substrate Solution was added into each well to incubate the cells at room temperature for 10 minutes. • (11) 100 µL of Stop Solution was added into each well. • (12) OD450 was read by EnSight.
The EPO-inducing activities of the compounds were expressed as the concentration for 50% of maximal effect (EC50).

[2] = Pharmacokinetic evaluation after intravenous injection or intragastric administration, plasma LC-MS/MS; format: in vivo, SD rats
Text: After the compounds were given to SD rats by intravenous injection or intragastric administration, concentrations of related compounds in plasma were detected by an LC-MS/MS method, and pharmacokinetics and absolute bioavailability of the compounds prepared in Embodiments 13 and 14 in the rats were preliminarily evaluated.
2. Line: Sprague Dawley rats, sex: male, weight: 200 g to 250 g
Pharmacokinetic characteristics of rodents after intravenous injection and oral administration of the compounds were tested by a standard scheme. In the experiment, a candidate compound was prepared into a clear solution, and given to the rats by single intravenous injection and intragastric administration. A solvent for intravenous injection was a certain proportion of N,N-dimethylacetamide (DMA) and 10% Solutol HS15 solution, and a solvent for oral administration was a certain proportion of sodium carboxymethyl cellulose (CMC) suspension. 5 minutes, 15 minutes, 30 minutes, 1 hour, 2 hours, 4 hours, 6 hours, 8 hours, 10 hours and 24 hours after drug administration, blood samples of the animals were respectively collected into K2EDTA anticoagulation tubes, which were temporarily stored on ice until centrifugation.

[3] = tested on: EPO (erythropoietin); test: Pharmacological evaluation: influence of continuous administration on EPO level; format: in vivo, SD rats; conditions: for EPO levels in serum of the rats: after 14 days of administration; for EPO levels in plasma of the rats: after administration, compared with the group of positive drug Enarodustat; for EPO level after 14 days of administration: individual rats 1-6; for EPO level after 14 days of administration / EPO level after 14 days of administration, Mean: 0.3 mg/mL, 10 mL/kg, once a day for 14 consecutive days, blood 4 hours after the drug on the 14th day, 2904.6 pg/mL was an upper limit of measurement; for EPO level after 14 days of administration, Mean: mean of 6 rats
Procedure: This experiment was intended to evaluate an influence of continuous administration of the compounds prepared in Embodiments 12, 13 and 14 on EPO (erythropoietin) in SD rats.
• Line: SD (Sprague Dawley) • Weeks of age and weight: 8 weeks, weight 200 g to 220 g • Sex: male • Animal source: Beijing Vital River Laboratory Animal Technology Co., Ltd.
• Positive drug: Enarodustat • Description: commercialized drugs approved for marketing in Japan • Specification and content: 2 mg JTZ-951(Enarodustat), 140 capsules/box
After a week of adaptive feeding, SD rats were randomly divided into 3 groups, 6 rats in each group, which were namely a blank group, a positive drug group (Enarodustat) and a group of compound in Embodiment 12. An Enarodustat tablet was crushed by a mortar, then quantitatively added with 0.5% methyl cellulose, and magnetically stirred and mixed evenly; and the compound prepared in Embodiment 12 was weighed, then quantitatively added with 0.5% methyl cellulose, and magnetically stirred and mixed evenly. […] The drug was given once a day for 14 consecutive days, and blood was taken to measure an EPO level 4 hours after the drug was given on the 14th day.

[4] = Subacute toxicity test, 14 consecutive days; format: in vivo; conditions: SD rats, 10 mg/kg once a day for 14 consecutive days, in words
Text: A proper amount of the compound in Embodiment 13 and a proper amount of the compound in Embodiment 14 were weighed by a balance and respectively placed into proper glass bottles, then DMSO, Solutol HS-15 and 0.9% physiological saline (in a ratio of v: v: v = 5%: 10%: 85%) were sequentially added into the glass bottles, and vortexed and stirred, and a drug dissolution condition was continuously concerned in the stirring process until the compounds were completely dissolved/suspended. Finally, drug solutions of the compound in Embodiment 13 and the compound in Embodiment 14 with a concentration of 0.67 mg/mL were prepared for current use.
An animal room was well ventilated, equipped with an air-conditioner, kept at a temperature of 20°C and 25°C and a humidity of 40% to 70%, and in light and dark conditions for 12 hours respectively, and the animals could eat and drink freely. SD rats with good physical signs could be selected for this experiment after being adaptively fed for at least 3 days before administration. Table 23 Source and number of experimental animals
Any operation on the experimental animals in this experiment met the requirements of the "Regulations for the Administration of Affairs Concerning Experimental Animals" issued by the Ministry of Science and Technology of the People's Republic of China. In this experiment, a solvent control group, an administration group of compound in Embodiment 13 and an administration group of compound in Embodiment 14 were set up. Administration dosages of the administration group of compound in Embodiment 13 and the administration group of compound in Embodiment 14 were (10 mg/kg) once a day for 14 consecutive days, while the same amount of blank solvent was given to the blank control group, and administration volumes were all 15 mL/kg. After each administration, symptoms and degrees of toxic reaction of the animals were observed. Recovery observation was carried out for 7 days after the last administration. […]
During the experiment, experimenters and veterinarians should observe physical signs and health conditions of the experimental animals continuously. Any abnormal manifestations of the animals, such as pain, depression and decreased activity should be recorded in original records of the experiment. […]
During the experiment, all animals were observed beside cages at least twice a day, and observed continuously for 2 hours after the drug administration. During the drug administration, if the animals had serious side effects or died, observation results should be recorded in a corresponding form. […]
The animals should be weighed before daily drug administration for 14 consecutive days, and the weights were recorded in a corresponding form. Food intakes of the experimental animals were detected during the experiment. […]

[5] = biological target: T1, PHD2 enzyme (Homo sapiens, UniProt Q9GZT9); test: Detection of PHD2 enzyme activity inhibition (FITC-HIF1α tracer, mP read-out); format: biochemical
T1 construct: purchased Active motif
Procedure: (1) A 1×Assay buffer was prepared. […] 100 nL of 100% DMSO was added into a negative control well and a positive control well respectively. (3) An enzyme solution with 2 times final concentration was prepared with the 1×Assay buffer. (4) 5 µL of the enzyme solution with 2 times final concentration was added into a compound well and the positive control well respectively. (5) 5 µL of the 1 ×Assay buffer was added into the negative control well. (6) The 384-well plate was centrifuged at 1000 rpm for 30 seconds, oscillated and mixed evenly, and then incubated for 15 minutes. (7) A tracer solution with 2 times final concentration was prepared with the 1×Assay buffer, and 5.0 µL of the tracer solution with 2 times final concentration was added to start the reaction.

[6] = tested on: EPO (erythropoietin); test: Pharmacological evaluation: influence of continuous administration on EPO level; format: in vivo, SD rats; conditions: SD rat, continuous chronic administration, in words
[7] = SD rats, in words, compared with Enarodustat in the table
[8] = male SD rats, route and dose not given

T1 sequence (Q9GZT9 whole entry, species assumed): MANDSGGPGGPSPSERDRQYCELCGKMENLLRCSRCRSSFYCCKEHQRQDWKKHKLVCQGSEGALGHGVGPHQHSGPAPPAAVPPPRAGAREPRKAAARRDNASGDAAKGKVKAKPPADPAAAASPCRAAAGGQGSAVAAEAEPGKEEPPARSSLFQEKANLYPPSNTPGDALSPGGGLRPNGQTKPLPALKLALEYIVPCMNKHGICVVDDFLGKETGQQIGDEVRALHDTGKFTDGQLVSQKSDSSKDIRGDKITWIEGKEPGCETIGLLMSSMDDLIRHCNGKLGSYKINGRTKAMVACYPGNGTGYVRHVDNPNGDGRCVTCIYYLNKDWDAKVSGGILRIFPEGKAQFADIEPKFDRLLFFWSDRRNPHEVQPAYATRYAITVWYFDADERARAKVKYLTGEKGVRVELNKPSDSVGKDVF

O=C(O)CNC(=O)c1c(O)cc(C2CCc3ccccc3C2)n2ncnc12 (single isomer, unassigned) [Compound in Embodiment 14, [(7-hydroxy-5-(1,2,3,4-tetrahydronaphthalene-2-yl)-[1,2,4]triazolo[1,5-a]pyridine-8-carbonyl)amino]acetic acid]
EC50 [1]: 4.16 µM | half-lives [2, 7]: obviously longer | in-vivo exposure [2, 7]: higher | Bioavailability F ([2]; male SD rats, intragastric vs intravenous): 31.3% | Concentration integral AUC [2, 8]: 15740 ng·h/mL | Half-life period T1/2 [2, 8]: 2.43 h | EPO levels in serum of the rats ([3]; in words): increased significantly | EPO levels in plasma of the rats ([3]; in words): significantly higher | EPO level after 14 days of administration [3]: 2279.1 pg/mL and 2095.6 pg/mL and 1982.7 pg/mL and 1943.6 pg/mL and 2038.9 pg/mL and 2137.6 pg/mL | EPO level after 14 days of administration, Mean [3]: 2079.6 pg/mL | toxicities ([4]; compared with Enarodustat): lower than that of Enarodustat | gastrointestinal findings [4]: no obvious gastrointestinal necrosis, and bleeding spots or flatulence in a black stomach part

O=C(O)CNC(=O)c1c(O)cc(C2CCc3ccccc3C2)n2ncnc12 (stereo not shown) [Compound in Embodiment 12, [(7-hydroxy-5-(1,2,3,4-tetrahydronaphthalene-2-yl)-[1,2,4]triazolo[1,5-a]pyridine-8-carbonyl)amino]acetic acid]
IC50 ([5]; test concentration from 10 µM, diluted 3 times into 10 concentrations, read-out: IC50): 0.0343 µM | EC50 ([1]; Homo sapiens, Hep3B, 24 h): 6.79 µM | EPO level ([3]; SD rat, continuous chronic administration, in words): significantly increase | EPO levels in serum of the rats ([3]; in words): increased significantly | EPO levels in plasma of the rats ([3]; in words): significantly higher | EPO level after 14 days of administration [3]: 2649.3 pg/mL and ≥ 2904.6 pg/mL (4×) and 2882.6 pg/mL | EPO level after 14 days of administration, Mean [3]: 2858.4 pg/mL | hemoglobin level [6]: significantly increase

O=C(O)CNC(=O)c1c(O)cc(CCc2ccccc2)n2ncnc12 [Enarodustat, reference compound]
IC50 [5]: 0.0219 µM | EC50 ([1]; Homo sapiens): 15.1 µM | AUC ([2]; male, Sprague-Dawley, rat, plasma, male SD rats, route and dose not given, read-out: Concentration integral AUC): 11400 ng·h/mL | half-life ([2]; male, Sprague-Dawley, rat, plasma, male SD rats, route and dose not given, read-out: Half-life period T1/2 (converted)): 1.12 h | bioavailability ([2]; male, Sprague-Dawley, rat, plasma, oral, male SD rats, intragastric vs intravenous, read-out: Bioavailability F): 30.1% | EPO levels in serum of the rats ([3]; in words): increased significantly | EPO level after 14 days of administration [3]: 452.8 pg/mL and 396.3 pg/mL and 483.2 pg/mL and 404.5 pg/mL and 418.4 pg/mL and 442.3 pg/mL | EPO level after 14 days of administration, Mean [3]: 432.9 pg/mL
